Test results as given in patent US20030028927A1 (priority 2001, published 2003).

What was measured:
Type in all cases: in vivo, Arabidopsis thaliana
[1] = system: Arabidopsis seedlings (ecotypes Col, Ler, Shadara); assay: Morphological phenotypes of Arabidopsis ecotype seedlings grown on Hsp90 inhibitor
Protocol: In most cases phenotypes were distinct and were not accompanied by a general failure to thrive. […] Next, several Arabidopsis ecotypes were tested from diverse geographic locations and environments, including Cape Verde Island ([…], Tsu-1, Mr-0, and Ts-1. […] Particular phenotypes were not restricted to particular ecotypes, but the frequencies at which they appeared varied reproducibly between them. […] 30% of seedlings had these phenotypes. […] also frequently produced distorted rosettes with juxtaposed cotyledons. Dwarfed plants with cotyledons that accumulated purple pigment were most common in Col. Curled hypocotyls were most frequent in Ler. Ecotypes were crossed several times in independent experiments to produce F1 seeds. […] Plates were unwrapped after 48 hrs at 22° C., were incubated in continuous light at 150 μmol m^-2 sec^-1 (unless otherwise indicated), and were analyzed after eight and ten days of growth.

[2] = system: F1 seedlings (Col x Ler and Ler x Cvi); assay: Phenotypes of F1 progeny of accession crosses with GdA; details: Col x Ler and Ler x Cvi F1, in the presence of GdA
From the text: To investigate the interplay of genetic variation, stochastic processes, and their dependence on the Hsp90 buffering system, Applicants tested crosses of different, nearly homozygous accessions (Col x Ler and Ler x Cvi) that are believed to have been recentlyevolving independently. If stochastic events contribute to phenotypes predisposed by genotype, then mixing genomes might disrupt developmental stability in F1 progeny. Further, if Hsp90 buffers developmental stability against such events, reducing Hsp90 function in nearly identical F1 progeny should increase phenotypic variance. […] Phenotypes were stronger and more frequent in seedlings with a maternal contribution from Ler (˜20 to 25% affected seedlings) than with maternal contributions from Col or Cvi (˜10 to 15%).
(§1) Ecotypes were crossed several times in independent experiments to produce F1 seeds. […] Plates were unwrapped after 48 hrs at 22° C., were incubated in continuous light at ˜150 μmol m^−2 sec^−1 (unless otherwise indicated), and were analyzed after eight and ten days of growth.

[3] = system: Cvi/Ler RI line seedlings; assay: RI line specific phenotypes on GdA
From the text: To test this, recombinant inbred lines (RI lines) were examined, which originated from crosses between two ecotypes followed by single-seed self-propagation for eight generations. Each line should be homozygous at almost all loci, with different lines representing various mosaics of the parental genomes (Alonso-Blanco et al., 1998). If a decrease in Hsp90 function uncovers novel phenotypes due to natural variation, GdA-induced phenotypes should vary between RI lines but tend to be shared within them. Here, work with 50 RI lines derived from a cross between Cvi and Ler (Cvi/Ler, CS22477 base set, ABRC) is presented. These lines are characterized by high rates of recombination and low segregation distortion (Alonso-Blanco et al., 1998). Col/Ler RI lines behaved similarly, although phenotypic variation was not quite so dramatic.
as §1
To minimize variation and provide more objective comparisons, two RI lines were plated together on each square plate. All sets were cold treated for 48 hrs. Foil-wrapped plates incubated at 22° C. were treated as described above. Since development was more rapid at 27° C., these plates were unwrapped after 24 hrs instead of 48 hrs. Phenotypes were scored at eight and ten days.

[4] = RI line 082, S-shaped rosette with vertically oriented leaf blade of cotyledons
[5] = RI line 104, purple pigmentation of cotyledons and true leaves
[6] = RI line 113, curled hypocotyl with root partially extended into air
[7] = RI line 119, deformed, radially-symmetric and missing true leaves
[8] = RI line 120, radially-symmetric and missing true leaves
[9] = RI line 122, distorted rosette, juxtaposed or fused cotyledons

COC1=C2C[C@@H](C)C[C@H](OC)[C@H](O)[C@@H](C)/C=C(\C)[C@H](OC(N)=O)[C@@H](OC)/C=C\C=C(/C)C(=O)NC(=CC1=O)C2=O [GdA, geldanamycin]
seedlings showing strong morphological abnormalities ([1]; 1.0 μM GdA, Col and Ler): 5-8%
phenotype frequency in selfed progeny ([1]; progeny of selfed Shadara plants with subtle true leaf abnormalities, with GdA): 75%
frequency of abnormal phenotypes in F1 progeny [2]: up to 25%
Frequency with 1 μM GdA at 22° C. [3, 4]: 32%
Frequency with 1 μM GdA at 22° C. (count) [3, 4]: 64/201
Frequency with 1 μM GdA at 22° C. [3, 5]: 34%
Frequency with 1 μM GdA at 22° C. (count) [3, 5]: 29/84
Frequency with 1 μM GdA at 22° C. ([3]; RI line 104, root morphology): 52%
Frequency with 1 μM GdA at 22° C. (count) ([3]; RI line 104, root morphology): 44/84
Frequency with 1 μM GdA at 22° C. [3, 6]: 32%
Frequency with 1 μM GdA at 22° C. (count) [3, 6]: 9/28
Frequency with 1 μM GdA at 22° C. [3, 7]: 68%
Frequency with 1 μM GdA at 22° C. (count) [3, 7]: 19/28
Frequency with 1 μM GdA at 22° C. [3, 8]: 64%
Frequency with 1 μM GdA at 22° C. (count) [3, 8]: 18/29
Frequency with 1 μM GdA at 22° C. [3, 9]: 28%
Frequency with 1 μM GdA at 22° C. (count) [3, 9]: 44/158
Frequency with 1 μM GdA at 22° C. ([3]; RI line 134, bent hypocotyls): 88%
Frequency with 1 μM GdA at 22° C. (count) ([3]; RI line 134, bent hypocotyls): 49/56
Frequency with 1 μM GdA at 22° C. ([3]; RI line 159, root morphology): 50%
Frequency with 1 μM GdA at 22° C. (count) ([3]; RI line 159, root morphology): 53/105
decrease of growth rate ([3]; relative to plants grown without GdA at 22° C.): 0.5 to 1 days
